The text below walks through data of US20260217767A1, “NOVEL A4B7 THIOETHER PEPTIDE DIMER ANTAGONISTS” (Protagonist Therapeutics, Inc., priority 2014, published 2026).

“And” between values parts separate entries of the source, which are not always exact repeats. Equal values may be shown once. *1 amine or outer side, *2 acyl side, *3 side chain or, on linkers, in order; H or OH if unused. Where a SMILES comes first, the peptide text is derived from it. Bridges are numbered along the chain shown (N, C = ends). Roman numbers before positions name the chains, in order. [ ]: non-standard residue; d: D form. Bip = N[C@@H](Cc1ccc(-c2ccccc2)cc1)C(=O)O; 1Nal = N[C@@H](Cc1cccc2ccccc12)C(=O)O; Diglycolyl = O=C(COCC(=O)[*:2])[*:1]; NMeR = CN[C@@H](CCCNC(=N)N)C(=O)O; Tic = O=C(O)[C@@H]1Cc2ccccc2CN1; X1 = O=C(c1ccccc1C[*:2])[*:1]; Pen = CC(C)(S)[C@H](N)C(=O)O

One series concerns the target T1, α4β1 (Homo sapiens, UniProt P05556+P13612).
T1 construct: purchased R&D Systems 5668-A4
The series is described as follows: α4β1-VCAM Competition ELISA. The series is classed as binding. The conditions noted are these: thioether peptide dimers, Table 7; read-out: ELISA A4B1. Summed up: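 rh VCAM-1-Fc coated plates; α4β1 (final 60 nM) and peptide (final 100 μM) incubated 2 h at 37° C. in 50 mM Tris-HCl pH 7.6, 100 mM NaCl, 1 mM MnCl2 or MgCl2, 0.05% Tween-20. Bound integrin detected with anti-CD49d 9F10 and HRP anti-mouse IgG, TMB read at 450 nm.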

The nature of series [1]: Simulated Intestinal Fluid (SIF) Stability Assay. The format is in vitro ADME. The conditions noted are these: 37° C., dimers, Table 7; for half-life at 22 μM: simulated intestinal fluid (SIF) with 1% porcine pancreatin, pH 6.5, porcine pancreatin; for half-life / SIF (Porcine) (half-life, min): porcine pancreatin. An outline of the steps:
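Peptide at 22 μM final was incubated at 37° C in blank FaSSIF pH 6.5 with 1% porcine pancreatin. Timed samples were quenched in acetonitrile/methanol/formic acid with internal standard and analysed by LC-MS/MS. Half-lives came from first-order exponential fits of percent remaining.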

A further series has as its target Jurkat E6.1 cells (Homo sapiens, UniProt P05556+P13612). The series can be described thus: α4β1-VCAM Cell Adhesion Assay. The format is cell-based. The note with it: thioether peptide dimers, Table 7; read-out: Cell Adhesion A4B1. Summed up: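 Jurkat E6.1 cells (200,000 per well, in DMEM with 0.1% BSA and 1 mM MnCl2) allowed to adhere to rh VCAM-1 Fc-coated wells with serially diluted peptide for 30-45 min at 37° C. After washing, bound cells quantified by MTT absorbance at 570 nm, cell-free background subtracted, for dose response.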

Sequence of Jurkat E6.1 cells (P13612 34-1032): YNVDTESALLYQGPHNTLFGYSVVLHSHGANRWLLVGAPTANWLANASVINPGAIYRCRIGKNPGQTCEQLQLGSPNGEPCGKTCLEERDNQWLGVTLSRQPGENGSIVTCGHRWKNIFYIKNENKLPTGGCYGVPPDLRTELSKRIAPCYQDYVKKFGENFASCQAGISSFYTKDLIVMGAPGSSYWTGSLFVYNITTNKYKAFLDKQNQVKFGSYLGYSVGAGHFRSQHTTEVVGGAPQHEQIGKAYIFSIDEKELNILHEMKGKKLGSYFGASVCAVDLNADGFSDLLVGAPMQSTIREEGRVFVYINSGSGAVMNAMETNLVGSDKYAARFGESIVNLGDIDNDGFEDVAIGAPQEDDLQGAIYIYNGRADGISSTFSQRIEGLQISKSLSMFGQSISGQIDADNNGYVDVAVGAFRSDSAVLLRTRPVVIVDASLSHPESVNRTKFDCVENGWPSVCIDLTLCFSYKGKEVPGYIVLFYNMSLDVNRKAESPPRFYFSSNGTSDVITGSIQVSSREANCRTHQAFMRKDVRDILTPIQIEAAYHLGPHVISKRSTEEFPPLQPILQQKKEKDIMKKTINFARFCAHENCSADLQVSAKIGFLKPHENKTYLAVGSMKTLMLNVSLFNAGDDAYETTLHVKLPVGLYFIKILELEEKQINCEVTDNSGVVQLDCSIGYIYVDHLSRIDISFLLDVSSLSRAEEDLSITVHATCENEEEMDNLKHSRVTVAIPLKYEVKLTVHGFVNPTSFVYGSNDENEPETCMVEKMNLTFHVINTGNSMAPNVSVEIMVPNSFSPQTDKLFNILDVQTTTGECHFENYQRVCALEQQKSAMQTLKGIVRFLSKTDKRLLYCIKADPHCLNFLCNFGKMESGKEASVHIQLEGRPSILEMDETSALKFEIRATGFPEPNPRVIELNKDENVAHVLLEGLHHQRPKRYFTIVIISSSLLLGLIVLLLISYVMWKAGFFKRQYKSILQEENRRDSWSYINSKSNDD
Sequence of Jurkat E6.1 cells (P05556 21-798): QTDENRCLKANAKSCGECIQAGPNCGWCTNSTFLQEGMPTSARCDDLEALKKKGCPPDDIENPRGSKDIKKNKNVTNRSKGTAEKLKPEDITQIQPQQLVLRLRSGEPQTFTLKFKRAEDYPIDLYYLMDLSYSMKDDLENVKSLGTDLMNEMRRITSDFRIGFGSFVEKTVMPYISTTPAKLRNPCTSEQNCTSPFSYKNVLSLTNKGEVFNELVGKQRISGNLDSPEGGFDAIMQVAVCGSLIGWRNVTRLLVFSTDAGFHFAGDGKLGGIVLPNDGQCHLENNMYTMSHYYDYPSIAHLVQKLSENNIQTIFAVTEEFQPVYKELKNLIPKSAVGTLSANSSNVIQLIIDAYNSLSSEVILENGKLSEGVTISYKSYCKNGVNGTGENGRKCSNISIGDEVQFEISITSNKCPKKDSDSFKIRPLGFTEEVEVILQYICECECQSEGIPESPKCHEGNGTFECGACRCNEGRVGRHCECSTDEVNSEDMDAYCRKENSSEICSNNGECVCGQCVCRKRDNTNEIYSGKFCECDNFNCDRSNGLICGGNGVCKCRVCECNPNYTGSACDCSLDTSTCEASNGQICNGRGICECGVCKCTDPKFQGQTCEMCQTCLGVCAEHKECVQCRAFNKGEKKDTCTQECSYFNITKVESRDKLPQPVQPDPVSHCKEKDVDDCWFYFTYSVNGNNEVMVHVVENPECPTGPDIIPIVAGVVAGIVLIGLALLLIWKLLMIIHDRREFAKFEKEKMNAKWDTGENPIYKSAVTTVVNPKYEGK
T1 sequence (P13612 34-977 limits assumed): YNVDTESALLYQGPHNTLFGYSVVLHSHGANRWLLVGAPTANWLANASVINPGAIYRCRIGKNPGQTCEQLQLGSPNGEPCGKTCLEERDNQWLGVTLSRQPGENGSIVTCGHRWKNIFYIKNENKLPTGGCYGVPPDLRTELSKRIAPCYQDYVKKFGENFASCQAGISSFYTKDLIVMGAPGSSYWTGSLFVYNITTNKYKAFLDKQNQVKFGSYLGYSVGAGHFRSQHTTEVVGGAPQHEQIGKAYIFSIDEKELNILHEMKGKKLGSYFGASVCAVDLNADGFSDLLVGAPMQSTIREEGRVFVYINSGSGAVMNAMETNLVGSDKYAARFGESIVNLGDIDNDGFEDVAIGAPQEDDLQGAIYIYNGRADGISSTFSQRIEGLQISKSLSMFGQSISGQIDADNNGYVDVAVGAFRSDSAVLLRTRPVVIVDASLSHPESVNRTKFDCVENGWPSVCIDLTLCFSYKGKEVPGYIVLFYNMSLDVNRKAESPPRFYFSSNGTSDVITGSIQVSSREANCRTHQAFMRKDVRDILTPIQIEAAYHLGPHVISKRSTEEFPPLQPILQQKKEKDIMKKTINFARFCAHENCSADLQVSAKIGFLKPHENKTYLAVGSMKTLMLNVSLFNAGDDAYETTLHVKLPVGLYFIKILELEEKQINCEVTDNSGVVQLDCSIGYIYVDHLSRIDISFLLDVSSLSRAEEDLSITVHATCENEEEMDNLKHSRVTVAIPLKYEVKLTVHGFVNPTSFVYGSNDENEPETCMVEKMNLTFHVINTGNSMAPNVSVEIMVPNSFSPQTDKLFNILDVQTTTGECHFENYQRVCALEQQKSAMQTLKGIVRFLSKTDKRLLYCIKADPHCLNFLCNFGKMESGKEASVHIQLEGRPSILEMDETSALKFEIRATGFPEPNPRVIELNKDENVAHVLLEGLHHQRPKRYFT
T1 sequence (P05556 21-728 limits assumed): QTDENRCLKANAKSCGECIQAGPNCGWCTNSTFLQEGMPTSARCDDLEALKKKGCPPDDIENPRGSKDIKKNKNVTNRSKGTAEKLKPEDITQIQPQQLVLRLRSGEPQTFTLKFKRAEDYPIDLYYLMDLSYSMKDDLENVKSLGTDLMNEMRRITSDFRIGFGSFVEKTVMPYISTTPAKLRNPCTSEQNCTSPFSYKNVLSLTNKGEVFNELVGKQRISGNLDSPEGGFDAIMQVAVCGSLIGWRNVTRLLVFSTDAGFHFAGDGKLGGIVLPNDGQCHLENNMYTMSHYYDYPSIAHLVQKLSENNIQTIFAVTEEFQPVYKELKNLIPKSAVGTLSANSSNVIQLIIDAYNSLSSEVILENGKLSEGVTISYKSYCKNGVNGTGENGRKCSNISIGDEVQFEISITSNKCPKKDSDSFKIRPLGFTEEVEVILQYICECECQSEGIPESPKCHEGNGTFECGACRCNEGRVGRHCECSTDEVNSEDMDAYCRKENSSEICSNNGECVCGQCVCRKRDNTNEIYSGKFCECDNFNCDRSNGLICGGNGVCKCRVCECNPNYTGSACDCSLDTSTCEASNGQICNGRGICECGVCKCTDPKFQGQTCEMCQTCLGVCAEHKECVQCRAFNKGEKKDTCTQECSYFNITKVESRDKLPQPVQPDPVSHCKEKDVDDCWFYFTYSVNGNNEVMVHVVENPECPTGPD

Broadly, the half-life is the time needed for the level to fall by half in the phase considered. With `CC(C)C[C@@H]1NC(=O)[C@H]([C@@H](C)O)NC(=O)[C@H](CC(=O)O)NC(=O)[C@H](CO)NC(=O)[C@H](CCCNC(=N)N)N(C)C(=O)c2ccccc2CSC(C)(C)[C@@H](C(=O)N[C@@H](Cc2cccc3ccccc23)C(=O)N[C@H](CCC(=O)O)C(=O)N[C@H](CCCCNC(=O)COCC(=O)NCCCC[C@@H](NC(=O)[C@@H](CCC(=O)O)NC(=O)[C@H](Cc2cccc3ccccc23)NC(=O)[C@H]2NC(=O)[C@H](CC(C)C)NC(=O)[C@H]([C@@H](C)O)NC(=O)[C@H](CC(=O)O)NC(=O)[C@H](CO)NC(=O)[C@H](CCCNC(=N)N)N(C)C(=O)c3ccccc3CSC2(C)C)C(N)=O)C(N)=O)NC1=O` [compound 158] (I: [NMeR]SDTL[Pen][1Nal][dE][dK]-NH2 / II: [NMeR]SDTL[Pen][1Nal][dE][dK]-NH2; linker I:9-II:9 via Diglycolyl; linker I:N-I:6, II:N-II:6 via X1), the IC50 on α4β1 was 100 to 1000 nM; on Jurkat E6.1 cells it was > 100000 nM. The half-life at 22 μM in series [1] (pig) is > 3 h.
For the compound `CC(C)C[C@@H]1NC(=O)[C@H]([C@@H](C)O)NC(=O)[C@H](CC(=O)O)NC(=O)[C@H](CO)NC(=O)[C@H](CCCNC(=N)N)N(C)C(=O)c2ccccc2CSC(C)(C)[C@@H](C(=O)N[C@@H](Cc2cccc3ccccc23)C(=O)N[C@@H](CCC(=O)O)C(=O)N[C@H](CCCCNC(=O)COCC(=O)NCCCC[C@@H](NC(=O)[C@H](CCC(=O)O)NC(=O)[C@H](Cc2cccc3ccccc23)NC(=O)[C@H]2NC(=O)[C@H](CC(C)C)NC(=O)[C@H]([C@@H](C)O)NC(=O)[C@H](CC(=O)O)NC(=O)[C@H](CO)NC(=O)[C@H](CCCNC(=N)N)N(C)C(=O)c3ccccc3CSC2(C)C)C(N)=O)C(N)=O)NC1=O` [compound 167] (I: [NMeR]SDTL[Pen][1Nal]E[dK]-NH2 / II: [NMeR]SDTL[Pen][1Nal]E[dK]-NH2; linker I:9-II:9 via Diglycolyl; linker I:N-I:6, II:N-II:6 via X1), the results for the IC50 on α4β1 and at Jurkat E6.1 cells were 25 to 100 nM and > 100000 nM, respectively. Moreover, in series [1] (simulated gi fluid), the half-life is < 0.333 h.
As for `CC(C)C[C@@H]1NC(=O)[C@H]([C@@H](C)O)NC(=O)[C@H](CC(=O)O)NC(=O)[C@H](CO)NC(=O)[C@H](CCCNC(=N)N)N(C)C(=O)c2ccccc2CSC(C)(C)[C@@H](C(=O)N[C@@H](Cc2ccc(-c3ccccc3)cc2)C(=O)N[C@H](CCC(=O)O)C(=O)N[C@H](CCCCN)C(N)=O)NC1=O` [compound 178] (HELM PEPTIDE1{[meR].S.D.T.L.[Pen].[O=C([C@H](Cc1ccc(-c2ccccc2)cc1)N[*:1])[*:2]].[dE].[dK].[am]}|CHEM1{[O=C(c1ccccc1C[*:2])[*:1]]}$PEPTIDE1,CHEM1,1:R1-1:R1|PEPTIDE1,CHEM1,6:R3-1:R2$$$V2.0), the IC50 at α4β1 was 100 to 1000 nM; at Jurkat E6.1 cells, > 1000 nM. Also, the half-life at 22 μM in series [1] (pig) was > 3 h. The “SIF (Porcine) (half-life, min)” value in series [1] is >180 (266), min and >180 min.
Turning to `CC(C)C[C@@H]1NC(=O)[C@H]([C@@H](C)O)NC(=O)[C@H](CC(=O)O)NC(=O)[C@H](CO)NC(=O)[C@H](CCCNC(=N)N)N(C)C(=O)c2ccccc2CSC[C@@H](C(=O)N2Cc3ccccc3C[C@H]2C(=O)N[C@H](CCC(=O)O)C(=O)N[C@H](CCCCNC(=O)COCC(=O)NCCCC[C@@H](NC(=O)[C@@H](CCC(=O)O)NC(=O)[C@@H]2Cc3ccccc3CN2C(=O)[C@@H]2CSCc3ccccc3C(=O)N(C)[C@@H](CCCNC(=N)N)C(=O)N[C@@H](CO)C(=O)N[C@@H](CC(=O)O)C(=O)N[C@@H]([C@@H](C)O)C(=O)N[C@@H](CC(C)C)C(=O)N2)C(N)=O)C(N)=O)NC1=O` [compound 184] (I: [NMeR]SDTLC[Tic][dE][dK]-NH2 / II: [NMeR]SDTLC[Tic][dE][dK]-NH2; linker I:9-II:9 via Diglycolyl; linker I:N-I:6, II:N-II:6 via X1), the IC50 on α4β1 was 100 to 1000 nM; at Jurkat E6.1 cells it was > 100000 nM. In addition, in series [1] (pig), the half-life at 22 μM was > 3 h. Also, the “SIF (Porcine) (half-life, min)” value in series [1] is >180 min.
As to `CC(C)C[C@@H]1NC(=O)[C@H]([C@@H](C)O)NC(=O)[C@H](CC(=O)O)NC(=O)[C@H](CO)NC(=O)[C@H](CCCNC(=N)N)N(C)C(=O)c2ccccc2CSC(C)(C)[C@@H](C(=O)N[C@@H](Cc2ccccc2)C(=O)N[C@H](CCC(=O)O)C(=O)N[C@H](CCCCNC(=O)COCC(=O)NCCCC[C@@H](NC(=O)[C@@H](CCC(=O)O)NC(=O)[C@H](Cc2ccccc2)NC(=O)[C@H]2NC(=O)[C@H](CC(C)C)NC(=O)[C@H]([C@@H](C)O)NC(=O)[C@H](CC(=O)O)NC(=O)[C@H](CO)NC(=O)[C@H](CCCNC(=N)N)N(C)C(=O)c3ccccc3CSC2(C)C)C(=O)O)C(=O)O)NC1=O` [compound 204] (I: [NMeR]SDTL[Pen]F[dE][dK]-OH / II: [NMeR]SDTL[Pen]F[dE][dK]-OH; linker I:9-II:9 via Diglycolyl; linker I:N-I:6, II:N-II:6 via X1), the IC50 at α4β1 was 100 to 1000 nM; at Jurkat E6.1 cells, > 100000 nM. The half-life in series [1] (pig) was > 3 h.
Turning to `CC(C)C[C@@H]1NC(=O)[C@H]([C@@H](C)O)NC(=O)[C@H](CC(=O)O)NC(=O)[C@H](CO)NC(=O)[C@H](CCCNC(=N)N)N(C)C(=O)c2ccccc2CSC[C@@H](C(=O)N2Cc3ccccc3C[C@H]2C(=O)N[C@H](CCC(=O)O)C(=O)N[C@H](CCCCNC(=O)COCC(=O)NCCCC[C@@H](NC(=O)[C@@H](CCC(=O)O)NC(=O)[C@@H]2Cc3ccccc3CN2C(=O)[C@@H]2CSCc3ccccc3C(=O)N(C)[C@@H](CCCNC(=N)N)C(=O)N[C@@H](CO)C(=O)N[C@@H](CC(=O)O)C(=O)N[C@@H]([C@@H](C)O)C(=O)N[C@@H](CC(C)C)C(=O)N2)C(=O)O)C(=O)O)NC1=O` [compound 207] (I: [NMeR]SDTLC[Tic][dE][dK]-OH / II: [NMeR]SDTLC[Tic][dE][dK]-OH; linker I:9-II:9 via Diglycolyl; linker I:N-I:6, II:N-II:6 via X1), the IC50 on α4β1 is 100 to 1000 nM; on Jurkat E6.1 cells, > 100000 nM. Further, in series [1] (pig), the half-life was > 3 h.
The corresponding values for `CC(C)C[C@@H]1NC(=O)[C@H]([C@@H](C)O)NC(=O)[C@H](CC(=O)O)NC(=O)[C@H](CO)NC(=O)[C@H](CCCNC(=N)N)N(C)C(=O)c2ccccc2CSC(C)(C)[C@@H](C(=O)N[C@@H](Cc2ccc(-c3ccccc3)cc2)C(=O)N[C@H](CCC(=O)O)C(=O)N[C@H](CCCCNC(=O)COCC(=O)NCCCC[C@@H](NC(=O)[C@@H](CCC(=O)O)NC(=O)[C@H](Cc2ccc(-c3ccccc3)cc2)NC(=O)[C@H]2NC(=O)[C@H](CC(C)C)NC(=O)[C@H]([C@@H](C)O)NC(=O)[C@H](CC(=O)O)NC(=O)[C@H](CO)NC(=O)[C@H](CCCNC(=N)N)N(C)C(=O)c3ccccc3CSC2(C)C)C(=O)O)C(=O)O)NC1=O` [compound 208] (I: [NMeR]SDTL[Pen][Bip][dE][dK]-OH / II: [NMeR]SDTL[Pen][Bip][dE][dK]-OH; linker I:9-II:9 via Diglycolyl; linker I:N-I:6, II:N-II:6 via X1) are 25 to 100 nM, > 100000 nM and > 3 h.
The like results for `CC(C)C[C@@H]1NC(=O)[C@H]([C@@H](C)O)NC(=O)[C@H](CC(=O)O)NC(=O)[C@H](CO)NC(=O)[C@H](CCCNC(=N)N)N(C)C(=O)c2ccccc2CSC(C)(C)[C@@H](C(=O)N[C@@H](Cc2c[nH]c3ccccc23)C(=O)N[C@H](CCC(=O)O)C(=O)N[C@H](CCCCNC(=O)COCC(=O)NCCCC[C@@H](NC(=O)[C@@H](CCC(=O)O)NC(=O)[C@H](Cc2c[nH]c3ccccc23)NC(=O)[C@H]2NC(=O)[C@H](CC(C)C)NC(=O)[C@H]([C@@H](C)O)NC(=O)[C@H](CC(=O)O)NC(=O)[C@H](CO)NC(=O)[C@H](CCCNC(=N)N)N(C)C(=O)c3ccccc3CSC2(C)C)C(=O)O)C(=O)O)NC1=O` [compound 209] (I: [NMeR]SDTL[Pen]W[dE][dK]-OH / II: [NMeR]SDTL[Pen]W[dE][dK]-OH; linker I:9-II:9 via Diglycolyl; linker I:N-I:6, II:N-II:6 via X1) were, in that order, 100 to 1000 nM, > 100000 nM and > 3 h.
